Experimental findings from US20240287070A1, “FUSED HETEROCYCLIC DERIVATIVES” (Janssen Sciences Ireland Unlimited Company, priority 2021, published 2024) are described below.

Data set [1] deals with HBV (HepG2.117 cell line, inducibly HBV producing). The data set can be described thus: Anti-HBV activity, intracellular HBV DNA by real-time PCR in HepG2.117 cell line. Conditions: HepG2.117 cells, 3 days of treatment. In kind it is cell-based, hepatitis B virus. How it is done: The anti HBV activity was measured using the HepG2.117 cell line, a stable, inducibly HBV producing cell line, which replicates HBV in the absence of doxycycline (Tet-off system). The HepG2 cell line is available from ATCCR under number HB-8065. Transfection of the HepG2 cell line can be as described in Sun and Nassal 2006 Journal of Hepatology 45 (2006) 636-645 “Stable HepG2- and Huh7-based human hepatoma cell lines for efficient regulated expression of infectious hepatitis B virus”.
For the antiviral assay, HBV replication was induced, followed by a treatment with serially diluted compound in 96-well plates. After 3 days of treatment, the antiviral activity was determined by quantification of intracellular HBV DNA using real-time PCR and an HBV specific primer set and probe.
(In general: Quantitative PCR measures a nucleic acid by following its amplification.)

Data set [2] in a line: Cytotoxicity, ATPlite Luminescence Assay. The format is cell-based, human. Conditions: human, HepG2 or HepG2.117 cells, 3-days incubation unless marked with *. How it is done:
Cytotoxicity of the compounds was tested using HepG2 or HepG2.117 cells, incubated for 3 or 4 days in the presence of compounds. The viability of the cells was assessed using the PERKIN ELMER ATPlite Luminescence Assay System.”
Background: ATP-based viability assays read luminescence as a measure of living cells.

The nature of data set [3]: Human liver microsome stability. The format is in vitro ADME. Conditions: 1 μM compound, NADPH 1 mM, 37° C., 0-60 min; for half-life at 1 μM: human, pooled human liver microsomes, pH 7.4, pooled human liver microsomes 0.5 mg/mL, read-out: HLM Metabolism t1/2. Here is the method: Human Liver Microsome Stability t½ (Min) of Compounds of Formula (I) […] All incubations are performed singularly for each compound. NADPH was added to initiate the reaction with the final concentration of 1 mM and the final incubation volume of 400 μL. At 6 time points (0, 5, 10, 20, 40 and 60 min) reactions were stopped by the removal of 50 μL of the incubation mixture into plates containing acetonitrile at a of 1:3 (v:v). The plates were centrifuged at 3000 rpm for 10 min at 4° C. to precipitate the protein. Following protein precipitation, the sample supernatants were combined in cassettes of up to 8 compounds. The internal standard was added (1:1 supernatant to internal standard solution) and samples were analyzed using standard LC-MS conditions. From a plot of ln peak area ratio (compound peak area/internal standard peak area) against time, the gradient of the line is determined. Subsequently, half-life is calculated using the equations below: Elimination rate constant (k)=(−gradient) […]
(Liver microsomes are vesicles of endoplasmic reticulum, rich in cytochrome P450 enzymes.)

[4] abbreviates: Hepatitis B virus, HepG2.117, 72 h.

For orientation: EC50 means the concentration that produces a half-maximal response. Usually CC50 stands for the concentration giving 50% cytotoxicity. In data set [1], `CC(c1cnn(C)c(=O)c1)N1C[C@@H](C)n2nc3c(c2C1=O)CN(C(=O)c1ccc(Cl)c(C(F)(F)F)c1)[C@H](C)C3` (single isomer, unassigned) [Compound 52A, (3R,7R)-2-(4-chloro-3-(trifluoromethyl)benzoyl)-3,7-dimethyl-9-((R*)-1-(1-methyl-6-oxo-1,6-dihydropyridazin-4-yl)ethyl)-1,2,3,4,8,9-hexahydropyrido [4′,3′:3,4]pyrazolo[1,5-a]pyrazin-10(7H)-one] registered an EC50 of 0.12 µM. Further, the CC50 at 3 days in data set [2] is > 50 µM. Also, the “HLM Metabolism t1/2” value in data set [3] (pooled human liver microsomes 0.5 mg/mL) is 1.48 h.

Take `Cc1nnn(-c2ccc(C(C)N3C[C@@H](C)n4nc5c(c4C3=O)CN(C(=O)c3ccc(Cl)c(Cl)c3)[C@H](C)C5)cc2)n1` (single isomer, unassigned) [Compound 22A, (3R,7R)-2-(3,4-dichlorobenzoyl)-3,7-dimethyl-9-((R*)-1-(4-(5-methyl-2H-tetrazol-2-yl)phenyl)ethyl)-1,2,3,4,8,9-hexahydropyrido[4′,3′:3,4]pyrazolo[1,5-a]pyrazin-10(7H)-one]: the response in data set [1] (setting [4]) was half-maximal at 0.034 µM (EC50). In addition, the CC50 at 3 days in data set [2] is > 50 µM. In data set [3], the half-life at 1 μM was determined as 1.35 h.

Consider `C[C@@H]1Cc2nn3c(c2CN1C(=O)c1ccc(Cl)c(C#N)c1)C(=O)N([C@H](C)c1ccc(OC(F)F)cc1)CC3` [Ref 1, reference compound], for which a half-maximal response in data set [1] (setting [4]) (EC50) required 0.095 µM. The CC50 at 3 days in data set [2] was > 12.5 µM. For the same molecule, the half-life at 1 μM in data set [3] came out at 0.583 h.

Turning to `CC(c1ccccn1)N1C[C@@H](C)n2nc3c(c2C1=O)CN(C(=O)c1ccc(Cl)c(Cl)c1)[C@H](C)C3` (single isomer, unassigned) [Compound 65A, (3R,7R)-2-(3,4-dichlorobenzoyl)-3,7-dimethyl-9-((R*)-1-(pyridin-2-yl)ethyl)-1,2,3,4,8,9-hexahydropyrido[4′,3′:3,4]pyrazolo[1,5-a]pyrazin-10(7H)-one], the midpoint of the response in data set [1] (setting [4]), the EC50, lay at 0.034 µM. Also, the CC50 at 3 days in data set [2] is > 50 µM. Moreover, the half-life at 1 μM in data set [3] was 2.53 h.

`CC(c1ccc(-n2cncn2)nc1)N1C[C@@H](C)n2nc3c(c2C1=O)CN(C(=O)c1ccc(Cl)c(Cl)c1)[C@H](C)C3` (single isomer, unassigned) [Compound 5A, (3R,7R)-9-((R*)-1-(6-(1H-1,2,4-Triazol-1-yl)pyridin-3-yl)ethyl)-2-(3,4-dichlorobenzoyl)-3,7-dimethyl-1,2,3,4,8,9-hexahydropyrido[4′,3′:3,4]pyrazolo[1,5-a]pyrazin-10(7H)-one]: the half-maximal effective concentration (EC50) in data set [1] is 0.087 µM. Besides, the CC50 at 3 days in data set [2] was > 50 µM. In data set [3], the half-life at 1 μM was > 3 h.

The molecule `CC(c1ccc(C(F)(F)F)nc1)N1C[C@@H](C)n2nc3c(c2C1=O)CN(C(=O)c1ccc(Cl)c(C#N)c1)[C@H](C)C3` (single isomer, unassigned) [Compound 12A, 2-Chloro-5-((3R,7R)-3,7-dimethyl-10-oxo-9-((R*)-1-(6-(trifluoromethyl)pyridin-3-yl)ethyl)-1,2,3,4,7,8,9,10-octahydropyrido[4′,3′:3,4]pyrazolo[1,5-a]pyrazine-2-carbonyl)benzonitrile] showed an EC50 in data set [1] of 0.6 µM. In addition, in data set [2], the CC50 at 3 days is > 50 µM. Moreover, the half-life at 1 μM in data set [3] was > 3 h.

`CC(c1ccc(C(C)(C)O)nc1)N1C[C@@H](C)n2nc3c(c2C1=O)CN(C(=O)c1ccc(Cl)c(C#N)c1)[C@H](C)C3` (single isomer, unassigned) [Compound 63A, 2-chloro-5-((3R,7R)-9-((R*)-1-(6-(2-hydroxypropan-2-yl)pyridin-3-yl)ethyl)-3,7-dimethyl-10-oxo-1,2,3,4,7,8,9,10-octahydropyrido[4′,3′:3,4]pyrazolo[1,5-a]pyrazine-2-carbonyl)benzonitrile]: the EC50 in data set [1] was found to be 0.38 µM. Also, the CC50 at 3 days in data set [2] is > 50 µM. Also, in data set [3], the half-life at 1 μM was > 3 h.
